# Target: T1, EBP (Homo sapiens, UniProt Q15125)
# T1 construct: HEK293T cells were utilized as the source of EBP enzyme; endogenous in cells; host or cells: HEK293T
# Assay: EBP Functional Assay (EBP immunoaffinity LC-MS assay)
# Assay type: biochemical
# Settings: HEK293T cells as source of EBP enzyme; 30 min with inhibitor, then zymosterol-d5, 37° C. for 4 h; percent conversion by LC-APCI MRM MS
# Description: The EBP immunoaffinity (IA) LC-MS assay measures the potency of small molecule inhibitors of EBP by quantifying their concentration-dependent changes in the enzyme's substrate and product using liquid chromatography atmospheric pressure chemical ionization multiple reaction monitoring mass spectrometry (LC-APCI MRM MS). HEK293T cells were utilized as the source of EBP enzyme. The enzyme was incubated with the small molecule inhibitors at variable concentrations for 30 min. Deuterated form of EBP substrate, zymosterol-d5 (Avanti Polar Lipids, Cat #700068P-1 mg), was then added and the plate was incubated at 37° C. for 4 h. Finally, the sterol isomers were extracted and injected to LC-APCI MRM MS. MRM transition used for the quantification for both zymosterol and dihydrolathosterol (substrate and product of EBP enzymatic reaction, respectively) is 372.3-203.2, CE 30 and DP 80 in positive ion mode. Percent conversion of the zymosterol-d5 to dehydrolathosterol-d5 was used to derive IC50 curves. Tasin-1 (1′-[(4-Methoxyphenyl)sulfonyl]-4-methyl-1,4′-bipiperidine, CAS 792927-06-1) was used as the reference small molecule inhibitor. Percent conversion versus the compound concentration data were fit to the following 4-parameter logistic model to generate IC50 curves: […]
# T1 sequence (Q15125 whole entry): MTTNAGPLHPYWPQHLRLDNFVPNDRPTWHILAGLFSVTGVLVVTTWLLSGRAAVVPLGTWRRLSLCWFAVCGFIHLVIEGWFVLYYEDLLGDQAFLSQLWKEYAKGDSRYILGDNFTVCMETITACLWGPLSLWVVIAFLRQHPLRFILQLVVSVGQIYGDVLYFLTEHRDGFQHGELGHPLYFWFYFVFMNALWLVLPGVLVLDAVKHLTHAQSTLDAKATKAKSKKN
row,IC50 [nM],Compound
1,150 to 2000,"Cc1cnc(S(=O)(=O)N2[C@@H]3CC[C@H]2C[C@H](N2CCC(C)CC2)C3)c(C)c1 [Example 46, (1R,3s,5S)-8-((3,5-Dimethylpyridin-2-yl)sulfonyl)-3-(4-methylpiperidin-1-yl)-8-azabicyclo[3.2.1]octane]"
2,< 50,"Cc1nc(C(F)(F)F)ccc1S(=O)(=O)N1[C@@H]2CC[C@H]1C[C@H](NC1CC3(COC3)C1)C2 (single isomer, unassigned) [Example 68]"
3,< 50,"O=S(=O)(c1ccc(OC(F)F)cc1)N1[C@@H]2CC[C@H]1C[C@@H](NCC1COC1)C2 [Example 72, (1R,3r,5S)-8-((4-(Difluoromethoxy)phenyl)sulfonyl)-N-(oxetan-3-ylmethyl)-8-azabicyclo[3.2.1]octan-3-amine]"
4,50 to 150,"O=S(=O)(c1ccc(OC(F)F)cc1)N1[C@@H]2CC[C@H]1C[C@@](O)(CN1CCOCC1)C2 [Example 34, (1R,3s,5S)-8-((4-(Difluoromethoxy)phenyl)sulfonyl)-3-(morpholinomethyl)-8-azabicyclo[3.2.1]octan-3-ol]"
5,< 50,"CC1CCN([C@@H]2C[C@H]3CC[C@@H](C2)N3S(=O)(=O)c2cc(-c3ccccc3)n[nH]2)CC1 [Example 10, (1R,3s,5S)-3-(4-Methylpiperidin-1-yl)-8-((3-phenyl-1H-pyrazol-5-yl)sulfonyl)-8-azabicyclo[3.2.1]octane]"
6,< 50,"CCn1nccc1S(=O)(=O)N1[C@@H]2CC[C@H]1C[C@H](N1CCC(C)CC1)C2 [Example 13, (1R,3s,5S)-8-((1-Ethyl-1H-pyrazol-5-yl)sulfonyl)-3-(4-methylpiperidin-1-yl)-8-azabicyclo[3.2.1]octane]"
7,50 to 150,"O=S(=O)(c1ccc(OC(F)F)cc1)N1C2CCC1CC(NCC1CC(O)C1)C2 (single isomer, unassigned) [Example 61]"
8,< 50,"COCc1ccc(S(=O)(=O)N2[C@@H]3CC[C@H]2C[C@H](N2CCC(C)CC2)C3)o1 [Example 8, (1R,3s,5S)-8-((5-(Methoxymethyl)furan-2-yl)sulfonyl)-3-(4-methylpiperidin-1-yl)-8-azabicyclo[3.2.1]octane]"
9,< 50,"CC1CCN([C@@H]2C[C@H]3CC[C@@H](C2)N3S(=O)(=O)c2ccc3c(c2)COCC3)CC1 [Example 7, (1R,3s,5S)-8-(Isochroman-7-ylsulfonyl)-3-(4-methylpiperidin-1-yl)-8-azabicyclo[3.2.1]octane]"
10,< 50,"O=S(=O)(c1ccc(OC(F)F)cc1)N1[C@@H]2CC[C@H]1C[C@H](NCC1COC1)C2 [Example 31, (1R,3s,5S)-8-((4-(Difluoromethoxy)phenyl)sulfonyl)-N-(oxetan-3-ylmethyl)-8-azabicyclo[3.2.1]octan-3-amine]"
11,50 to 150,"O=S(=O)(c1ccc(OC(F)F)cc1)N1C2CCC1CC(N1CC3CC(C3)C1)C2 (centres unmarked) [Example 57, 3-(8-((4-(Difluoromethoxy)phenyl)sulfonyl)-8-azabicyclo[3.2.1]octan-3-yl)-3-azabicyclo[3.1.1]heptane]"
12,< 50,"Cc1nonc1S(=O)(=O)N1[C@@H]2CC[C@H]1C[C@@H](N1CCC(C)CC1)C2 [Example 1, 3-Methyl-4-(((1R,3r,5S)-3-(4-methylpiperidin-1-yl)-8-azabicyclo[3.2.1]octan-8-yl)sulfonyl)-1,2,5-oxadiazole]"
13,50 to 150,"COC1CCN(C2CC3CCC(C2)N3S(=O)(=O)c2ccc(OC(F)F)cc2)C1 (centres unmarked) [Example 50, 8-((4-(Difluoromethoxy)phenyl)sulfonyl)-3-(3-methoxypyrrolidin-1-yl)-8-azabicyclo[3.2.1]octane]"
14,< 50,"CC12CC(NC3CC4CCC(C3)N4S(=O)(=O)c3ccc(OC(F)F)cc3)(CO1)C2 (centres unmarked) [Example 30, 8-((4-(Difluoromethoxy)phenyl)sulfonyl)-N-(1-methyl-2-oxabicyclo[2.1.1]hexan-4-yl)-8-azabicyclo[3.2.1]octan-3-amine]"
15,< 50,"Cc1nc(C(F)(F)F)ccc1S(=O)(=O)N1[C@@H]2CC[C@H]1C[C@H](NCC1CCOCC1)C2 (single isomer, unassigned) [Example 24]"
16,< 50,"CC1CCN([C@H]2C[C@H]3CC[C@@H](C2)N3S(=O)(=O)c2ccc(OC(F)F)cc2)CC1 [Example 20, (1R,3r,5S)-8-((4-(difluoromethoxy)phenyl)sulfonyl)-3-(4-methylpiperidin-1-yl)-8-azabicyclo[3.2.1]octane]"
17,< 50,"O=S(=O)(c1c(F)cc(OC(F)F)cc1F)N1[C@@H]2CC[C@H]1C[C@H](CN1CCOCC1)C2 [Example 35, 4-(((1R,3s,5S)-8-((4-(Difluoromethoxy)-2,6-difluorophenyl)sulfonyl)-8-azabicyclo[3.2.1]octan-3-yl)methyl)morpholine]"
18,< 50,"O=S(=O)(c1ccc(OC(F)F)cc1)N1[C@@H]2CC[C@H]1C[C@](O)(CN1CCOCC1)C2 [Example 33, (1R,3r,5S)-8-((4-(Difluoromethoxy)phenyl)sulfonyl)-3-(morpholinomethyl)-8-azabicyclo[3.2.1]octan-3-ol]"
19,< 50,"Cc1nc(C(F)(F)F)ccc1S(=O)(=O)N1[C@@H]2CC[C@H]1C[C@@H](NCC1(C)COC1)C2 (single isomer, unassigned) [Example 27]"
20,150 to 2000,"CC1CCN([C@@H]2C[C@H]3CC[C@@H](C2)N3S(=O)(=O)c2csc(C(F)(F)F)n2)CC1 [Example 42, 4-(((1R,3s,5S)-3-(4-Methylpiperidin-1-yl)-8-azabicyclo[3.2.1]octan-8-yl)sulfonyl)-2-(trifluoromethyl)thiazole]"
21,> 2000,"O=S(=O)(c1ccc(OC(F)F)cc1)N1C2CCC1CC(NC1COC1)C2 (centres unmarked) [Example 74, 8-((4-(Difluoromethoxy)phenyl)sulfonyl)-N-(oxetan-3-yl)-8-azabicyclo[3.2.1]octan-3-amine]"
22,< 50,"CC1(CN[C@@H]2C[C@H]3CC[C@@H](C2)N3S(=O)(=O)c2ccc(OC(F)F)cc2)COC1 [Example 28, (1R,3s,5S)-8-((4-(Difluoromethoxy)phenyl)sulfonyl)-N-((3-methyloxetan-3-yl)methyl)-8-azabicyclo[3.2.1]octan-3-amine]"
23,< 50,"COc1nc(C)ccc1S(=O)(=O)N1[C@@H]2CC[C@H]1C[C@H](N1CCC(C)CC1)C2 [Example 3, (1R,3s,5S)-8-((2-Methoxy-6-methylpyridin-3-yl)sulfonyl)-3-(4-methylpiperidin-1-yl)-8-azabicyclo[3.2.1]octane]"
24,< 50,"COCCC(C)NC1CC2CCC(C1)N2S(=O)(=O)c1ccc(OC(F)F)cc1 (centres unmarked) [Example 52, 8-((4-(Difluoromethoxy)phenyl)sulfonyl)-N-(4-methoxybutan-2-yl)-8-azabicyclo[3.2.1]octan-3-amine]"
25,50 to 150,"CC1(O)CCN(C2CC3CCC(C2)N3S(=O)(=O)c2ccc(OC(F)F)cc2)C1 (centres unmarked) [Example 49, 1-(8-((4-(Difluoromethoxy)phenyl)sulfonyl)-8-azabicyclo[3.2.1]octan-3-yl)-3-methylpyrrolidin-3-ol]"
26,150 to 2000,"Cc1ccnc(-n2cc(S(=O)(=O)N3[C@@H]4CC[C@H]3C[C@@H](N3CCC(C)CC3)C4)cn2)c1 [Example 40, (1R,3r,5S)-3-(4-methylpiperidin-1-yl)-8-((1-(4-methylpyridin-2-yl)-1H-pyrazol-4-yl)sulfonyl)-8-azabicyclo[3.2.1]octane]"

# Source: patent publication US20250161281A1, “EMOPAMIL-BINDING PROTEIN INHIBITORS AND USES THEREOF” (BIOGEN MA INC., priority 2022, published 2025)
